Measured values taken from ChEMBL document CHEMBL1157712, “Hit to lead account of the discovery of bisbenzamide and related ureidobenzamide inhibitors of Rho kinase” (J Med Chem, 2010).
One block for each compound: values may come before it.

Tests used:
[1] = biological target: Casein kinase I isoform alpha (Homo sapiens) (UniProt P48729); assay: Inhibition of CK1 at 3 uM relative to control; values are per cent of control
[2] = biological target: MAP kinase-activated protein kinase 2 (Homo sapiens) (UniProt P49137); assay: Inhibition of MAPKAPK2 at 3 uM relative to control; values are per cent of control
[3] = biological target: Ribosomal protein S6 kinase alpha-1 (Homo sapiens) (UniProt Q15418); assay: Inhibition of MAPKAPK1A at 3 uM relative to control; values are per cent of control
[4] = biological target: Eukaryotic elongation factor 2 kinase (Homo sapiens) (UniProt O00418); assay: Inhibition of EF2K at 3 uM relative to control; values are per cent of control
[5] = biological target: Ribosomal protein S6 kinase alpha-3 (Homo sapiens) (UniProt P51812); assay: Inhibition of MAPKAPK1b at 3 uM relative to control; values are per cent of control
[6] = biological target: MAP kinase-activated protein kinase 3 (Homo sapiens) (UniProt Q16644); assay: Inhibition of MAPKAPK3 at 3 uM relative to control; values are per cent of control
[7] = biological target: Serine/threonine-protein kinase N2 (Homo sapiens, UniProt Q16513)
[8] = Inhibition of AMPK at 3 uM relative to control; values are per cent of control
[9] = biological target: Serine/threonine-protein kinase MRCK beta (Homo sapiens) (UniProt Q9Y5S2); assay: Inhibition of CDC42BPB
[10] = biological target: MAP kinase-activated protein kinase 5 (Homo sapiens) (UniProt Q8IW41); assay: Inhibition of PRAK at 3 uM relative to control; values are per cent of control
[11] = biological target: Myosin light chain kinase, smooth muscle (Homo sapiens) (UniProt Q15746); assay: Inhibition of SMMLCK at 3 uM relative to control; values are per cent of control
[12] = Inhibition of PKA at 3 uM relative to control; values are per cent of control
[13] = Inhibition of CK2 at 3 uM relative to control; values are per cent of control
[14] = biological target: SRSF protein kinase 1 (Homo sapiens) (UniProt Q96SB4); assay: Inhibition of SRPK1 at 3 uM relative to control; values are per cent of control
[15] = biological target: Serine/threonine-protein kinase Nek7 (Homo sapiens) (UniProt Q8TDX7); assay: Inhibition of NEK7 at 3 uM relative to control; values are per cent of control
[16] = biological target: Tyrosine-protein kinase CSK (Homo sapiens) (UniProt P41240); assay: Inhibition of CSK at 3 uM relative to control; values are per cent of control
[17] = biological target: Dual specificity tyrosine-phosphorylation-regulated kinase 1A (Homo sapiens) (UniProt Q13627); assay: Inhibition of DYRK1A at 3 uM relative to control; values are per cent of control
[18] = biological target: Serine/threonine-protein kinase 26 (Homo sapiens, UniProt Q9P289); assay: Inhibition of MST4
[19] = biological target: Eukaryotic elongation factor 2 kinase (Homo sapiens) (UniProt O00418); details: 3 to 6 uM
Description: Inhibition of EF2K at 3 to 6 uM relative to control

[20] = biological target: Voltage-gated inwardly rectifying potassium channel KCNH2 (Homo sapiens, UniProt Q12809); assay: Inhibition of human ERG potassium channel up to 70 uM
[21] = biological target: Serine/threonine-protein kinase pim-2 (Homo sapiens, UniProt Q9P1W9); assay: Inhibition of PIM2
[22] = biological target: Serine/threonine-protein kinase 3 (Homo sapiens) (UniProt Q13188); details: 3 to 6 uM
Description: Inhibition of MST2 at 3 to 6 uM relative to control

[23] = biological target: Epithelial discoidin domain-containing receptor 1 (Homo sapiens) (UniProt Q08345); details: 3 to 6 uM
Description: Inhibition of DDR1 at 3 to 6 uM relative to control

Cytochrome P450 2D6 = Cytochrome P450 2D6 (Homo sapiens, UniProt P10635); assay: Inhibition of human CYP2D6 by fluorescence assay; type: ADME
[24] = Permeability from basolateral to apical side in human Caco-2 cells; type: ADME, cell-based; details: read-out: permeability
[25] = biological target: Protein kinase C alpha type (Homo sapiens) (UniProt P17252); details: 3 to 6 uM
Description: Inhibition of PKCalpha at 3 to 6 uM relative to control

[26] = biological target: Tyrosine-protein kinase Lyn (Homo sapiens, UniProt P07948); assay: Inhibition of LYN
[27] = biological target: Serine/threonine-protein kinase Nek6 (Homo sapiens) (UniProt Q9HC98); details: 3 to 6 uM
Description: Inhibition of NEK6 at 3 to 6 uM relative to control

Rattus norvegicus = organism: Rattus norvegicus; assay: Induction of relaxation activity of phenylephrine-induced Sprague-Dawley rat aortic ring contraction; type: functional; details: Aorta
Cytochrome P450 2C19 = Cytochrome P450 2C19 (Homo sapiens, UniProt P33261); assay: Inhibition of human CYP2C19 by fluorescence assay; type: ADME
[28] = biological target: Serine/threonine-protein kinase Nek7 (Homo sapiens) (UniProt Q8TDX7); details: 3 to 6 uM
Description: Inhibition of NEK7 at 3 to 6 uM relative to control

[29] = biological target: Mitogen-activated protein kinase 1 (Homo sapiens) (UniProt P28482); details: 3 to 6 uM
Description: Inhibition of MAPK2 at 3 to 6 uM relative to control

[30] = biological target: Leucine-rich repeat serine/threonine-protein kinase 2 (Homo sapiens) (UniProt Q5S007); details: 3 to 6 uM
Description: Inhibition of LRRK2 at 3 to 6 uM relative to control

[31] = Membrane permeability by PAMPA assay; type: ADME; details: read-out: permeability
[32] = biological target: Serine/threonine-protein kinase haspin (Homo sapiens) (UniProt Q8TF76); details: 3 to 6 uM
Description: Inhibition of GSG2 at 3 to 6 uM relative to control

[33] = biological target: Receptor-interacting serine/threonine-protein kinase 4 (Homo sapiens) (UniProt P57078); details: 3 to 6 uM
Description: Inhibition of ANKRD3 at 3 to 6 uM relative to control

[34] = biological target: Mitogen-activated protein kinase 14 (Homo sapiens) (UniProt Q16539); details: 3 to 6 uM
Description: Inhibition of p38a at 3 to 6 uM relative to control

[35] = biological target: Serine/threonine-protein kinase PLK1 (Homo sapiens, UniProt P53350); details: 3 to 6 uM
Description: Inhibition of PLK1 at 3 to 6 uM relative to control

[36] = biological target: Lymphokine-activated killer T-cell-originated protein kinase (Homo sapiens) (UniProt Q96KB5); details: 3 to 6 uM
Description: Inhibition of PBK at 3 to 6 uM relative to control

[37] = biological target: Serine/threonine-protein kinase Sgk1 (Homo sapiens) (UniProt O00141); details: 3 to 6 uM
Description: Inhibition of SGK at 3 to 6 uM relative to control

Chain of Serine/threonine-protein kinase Nek7 (Homo sapiens) (Q8TDX7 whole entry, looked up): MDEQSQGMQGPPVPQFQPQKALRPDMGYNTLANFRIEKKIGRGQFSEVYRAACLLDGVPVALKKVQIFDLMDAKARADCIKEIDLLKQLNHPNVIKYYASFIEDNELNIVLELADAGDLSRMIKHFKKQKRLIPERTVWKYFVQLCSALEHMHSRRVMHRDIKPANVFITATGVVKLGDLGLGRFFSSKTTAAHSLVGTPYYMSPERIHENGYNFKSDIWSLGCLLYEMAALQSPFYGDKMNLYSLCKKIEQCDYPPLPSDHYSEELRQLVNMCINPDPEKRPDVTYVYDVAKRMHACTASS
Chain of Eukaryotic elongation factor 2 kinase (Homo sapiens) (O00418 whole entry): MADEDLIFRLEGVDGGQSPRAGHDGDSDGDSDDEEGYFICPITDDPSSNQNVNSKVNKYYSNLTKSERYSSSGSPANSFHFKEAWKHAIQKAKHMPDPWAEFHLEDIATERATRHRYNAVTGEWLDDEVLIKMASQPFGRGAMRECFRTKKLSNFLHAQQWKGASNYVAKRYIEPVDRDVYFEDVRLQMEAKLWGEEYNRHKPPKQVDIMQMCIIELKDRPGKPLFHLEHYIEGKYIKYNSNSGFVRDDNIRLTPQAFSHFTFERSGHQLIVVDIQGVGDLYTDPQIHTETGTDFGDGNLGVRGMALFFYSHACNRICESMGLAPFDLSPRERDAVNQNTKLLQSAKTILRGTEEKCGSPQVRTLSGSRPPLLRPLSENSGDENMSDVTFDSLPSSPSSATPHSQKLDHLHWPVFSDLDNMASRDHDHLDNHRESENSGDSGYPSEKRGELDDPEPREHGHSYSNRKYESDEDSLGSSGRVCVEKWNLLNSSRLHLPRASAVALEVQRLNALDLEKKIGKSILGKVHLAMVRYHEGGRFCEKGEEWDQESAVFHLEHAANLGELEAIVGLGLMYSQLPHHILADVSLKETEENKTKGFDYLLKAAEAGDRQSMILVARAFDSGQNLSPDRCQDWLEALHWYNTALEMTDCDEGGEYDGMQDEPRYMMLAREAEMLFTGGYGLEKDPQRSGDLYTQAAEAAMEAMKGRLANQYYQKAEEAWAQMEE
Chain of Mitogen-activated protein kinase 1 (Homo sapiens) (P28482 whole entry): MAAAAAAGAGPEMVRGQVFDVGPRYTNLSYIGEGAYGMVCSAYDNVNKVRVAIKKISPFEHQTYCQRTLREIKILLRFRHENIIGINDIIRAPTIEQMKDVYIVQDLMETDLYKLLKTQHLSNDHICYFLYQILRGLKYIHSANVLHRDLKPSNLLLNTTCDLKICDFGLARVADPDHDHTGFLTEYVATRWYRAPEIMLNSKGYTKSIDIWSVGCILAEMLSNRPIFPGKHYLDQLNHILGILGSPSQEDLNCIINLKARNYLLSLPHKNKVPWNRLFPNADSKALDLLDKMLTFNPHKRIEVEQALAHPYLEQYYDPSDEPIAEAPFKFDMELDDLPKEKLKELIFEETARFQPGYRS
Chain of SRSF protein kinase 1 (Homo sapiens) (Q96SB4 whole entry): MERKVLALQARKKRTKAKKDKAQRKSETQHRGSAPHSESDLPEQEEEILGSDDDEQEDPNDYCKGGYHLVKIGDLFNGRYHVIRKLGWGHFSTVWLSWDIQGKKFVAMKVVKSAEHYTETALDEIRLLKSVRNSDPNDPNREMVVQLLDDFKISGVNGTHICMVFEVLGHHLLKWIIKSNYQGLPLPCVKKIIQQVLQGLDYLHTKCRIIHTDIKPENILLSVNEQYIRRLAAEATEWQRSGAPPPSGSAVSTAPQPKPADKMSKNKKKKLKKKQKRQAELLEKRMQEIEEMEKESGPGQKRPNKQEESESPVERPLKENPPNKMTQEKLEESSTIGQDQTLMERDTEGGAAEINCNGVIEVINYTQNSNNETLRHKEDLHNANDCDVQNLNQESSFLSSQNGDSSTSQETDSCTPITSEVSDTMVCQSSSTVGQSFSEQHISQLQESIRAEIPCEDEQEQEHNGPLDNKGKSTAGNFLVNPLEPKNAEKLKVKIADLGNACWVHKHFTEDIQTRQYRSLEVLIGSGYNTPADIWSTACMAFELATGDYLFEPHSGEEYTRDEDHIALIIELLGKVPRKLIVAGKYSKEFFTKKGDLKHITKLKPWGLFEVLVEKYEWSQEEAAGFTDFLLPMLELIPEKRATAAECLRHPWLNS
Chain of Casein kinase I isoform alpha (Homo sapiens) (P48729 2-337 limits assumed): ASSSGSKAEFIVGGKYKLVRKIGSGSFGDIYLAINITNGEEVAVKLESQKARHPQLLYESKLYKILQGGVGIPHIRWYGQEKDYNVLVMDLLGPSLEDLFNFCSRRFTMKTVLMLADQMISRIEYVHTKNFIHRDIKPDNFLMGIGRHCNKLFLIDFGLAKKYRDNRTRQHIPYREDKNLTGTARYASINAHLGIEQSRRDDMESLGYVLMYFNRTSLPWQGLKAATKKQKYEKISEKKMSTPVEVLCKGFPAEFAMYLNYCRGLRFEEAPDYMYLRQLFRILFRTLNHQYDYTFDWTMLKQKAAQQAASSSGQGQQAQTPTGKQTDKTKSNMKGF
Chain of Mitogen-activated protein kinase 14 (Homo sapiens) (Q16539 whole entry): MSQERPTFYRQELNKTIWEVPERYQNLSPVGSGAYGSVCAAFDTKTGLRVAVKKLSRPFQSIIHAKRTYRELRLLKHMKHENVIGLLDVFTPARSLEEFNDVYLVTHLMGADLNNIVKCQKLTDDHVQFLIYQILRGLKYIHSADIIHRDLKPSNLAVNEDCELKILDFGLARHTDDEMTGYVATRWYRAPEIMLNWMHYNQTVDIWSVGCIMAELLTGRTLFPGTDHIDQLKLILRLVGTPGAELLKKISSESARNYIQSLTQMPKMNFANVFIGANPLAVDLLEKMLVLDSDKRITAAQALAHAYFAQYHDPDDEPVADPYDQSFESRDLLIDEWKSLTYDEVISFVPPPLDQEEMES
Chain of Serine/threonine-protein kinase Nek6 (Homo sapiens) (Q9HC98 whole entry): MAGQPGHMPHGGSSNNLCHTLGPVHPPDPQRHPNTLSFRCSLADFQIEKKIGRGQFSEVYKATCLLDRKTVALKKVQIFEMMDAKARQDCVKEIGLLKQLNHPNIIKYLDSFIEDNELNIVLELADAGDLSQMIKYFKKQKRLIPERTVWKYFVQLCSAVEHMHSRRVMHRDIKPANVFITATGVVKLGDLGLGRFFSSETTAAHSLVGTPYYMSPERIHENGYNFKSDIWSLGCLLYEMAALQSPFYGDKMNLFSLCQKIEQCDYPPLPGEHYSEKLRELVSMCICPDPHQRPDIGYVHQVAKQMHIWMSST
Chain of MAP kinase-activated protein kinase 2 (Homo sapiens) (P49137 whole entry, looked up): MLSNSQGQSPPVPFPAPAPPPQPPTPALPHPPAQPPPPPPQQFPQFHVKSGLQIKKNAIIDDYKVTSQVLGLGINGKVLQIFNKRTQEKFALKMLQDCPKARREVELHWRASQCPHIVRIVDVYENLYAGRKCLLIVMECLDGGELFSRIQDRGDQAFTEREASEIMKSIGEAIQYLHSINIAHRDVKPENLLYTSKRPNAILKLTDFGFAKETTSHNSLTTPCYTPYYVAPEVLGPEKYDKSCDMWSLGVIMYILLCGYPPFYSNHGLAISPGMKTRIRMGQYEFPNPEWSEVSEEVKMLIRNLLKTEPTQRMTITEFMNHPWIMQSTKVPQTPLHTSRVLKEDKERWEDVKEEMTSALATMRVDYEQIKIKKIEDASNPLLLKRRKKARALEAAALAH
Chain of MAP kinase-activated protein kinase 5 (Homo sapiens) (Q8IW41 whole entry): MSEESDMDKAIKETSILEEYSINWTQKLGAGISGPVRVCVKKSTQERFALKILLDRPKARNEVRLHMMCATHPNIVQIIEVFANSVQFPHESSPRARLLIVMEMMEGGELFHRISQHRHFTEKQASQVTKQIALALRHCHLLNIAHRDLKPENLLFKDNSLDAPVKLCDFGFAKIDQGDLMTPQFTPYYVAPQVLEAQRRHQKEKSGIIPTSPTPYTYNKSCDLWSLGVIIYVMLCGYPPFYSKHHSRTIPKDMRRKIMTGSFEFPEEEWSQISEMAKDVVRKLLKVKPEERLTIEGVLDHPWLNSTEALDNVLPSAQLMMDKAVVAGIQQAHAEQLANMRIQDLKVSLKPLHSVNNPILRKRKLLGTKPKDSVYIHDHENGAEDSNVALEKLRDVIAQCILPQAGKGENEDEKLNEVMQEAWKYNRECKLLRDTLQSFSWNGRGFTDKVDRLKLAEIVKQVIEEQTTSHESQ
Chain of Serine/threonine-protein kinase pim-2 (Q9P1W9 whole entry): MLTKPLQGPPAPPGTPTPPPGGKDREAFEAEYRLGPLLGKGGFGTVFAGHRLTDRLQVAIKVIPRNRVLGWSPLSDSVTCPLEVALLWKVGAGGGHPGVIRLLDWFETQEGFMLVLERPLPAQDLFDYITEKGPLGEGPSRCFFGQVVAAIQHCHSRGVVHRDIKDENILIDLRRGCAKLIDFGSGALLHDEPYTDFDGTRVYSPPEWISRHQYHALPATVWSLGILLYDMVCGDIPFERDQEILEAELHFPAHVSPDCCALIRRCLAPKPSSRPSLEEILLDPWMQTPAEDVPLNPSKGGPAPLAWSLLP

- residual activity [1]: > 50%
- residual activity [2]: > 50%
- residual activity [3]: > 50%
- residual activity [4]: > 50%
- residual activity [5]: > 50%
- residual activity [6]: > 50%
- IC50 [7]: 0.77 µM
- residual activity [8]: > 50%
- IC50 [9]: > 5 µM
- residual activity [10]: > 50%
- residual activity [11]: > 50%
- residual activity [12]: > 50%
- residual activity [13]: > 50%
- residual activity [14]: > 50%
- residual activity [15]: > 50%
- residual activity [16]: > 50%
- residual activity [17]: > 50%
Compound: NC(=O)c1ccc(NC(=O)NCc2cccc(C(=O)Nc3ccc4c(c3)CNCC4)c2)cc1

- IC50 [18]: > 10 µM
- residual activity [19]: > 50%
- IC50 [21]: > 10 µM
- residual activity [22]: > 50%
- residual activity [23]: > 50%
- IC50 (Cytochrome P450 2D6): > 30 µM
- Papp B→A [24]: 5.4 ×10⁻⁶ cm/s
- residual activity [25]: > 50%
- IC50 [26]: > 10 µM
- residual activity [27]: > 50%
- IC50 (Rattus norvegicus): 6.4 µM
- IC50 (Cytochrome P450 2C19): > 30 µM
- residual activity [28]: > 50%
- residual activity [29]: > 50%
- residual activity [30]: > 50%
- Papp [31]: 3.6 ×10⁻⁶ cm/s
- residual activity [32]: > 50%
- residual activity [33]: > 50%
- residual activity [34]: > 50%
- residual activity [35]: > 50%
- residual activity [37]: > 50%
Compound: COc1ccc(C(=O)NCc2cccc(C(=O)Nc3ccc4c(c3)CNCC4)c2)cc1OC
- inhibition (INH) [20]: Not Active
- residual activity [36]: > 50%
